For data set [1] the following is noted: 30° C.; for Solubility, beta-cyclodextrin + citric acid / Solubility, beta-cyclodextrin + glutaric acid / Solubility, beta-cyclodextrin + lactic acid / Solubility, beta-cyclodextrin + tartaric acid: 2% β-cyclodextrin; for Solubility, beta-cyclodextrin + lactic acid: 1% lactic acid; for Solubility in 2% aq. beta CD soln.: water containing 2% β-cyclodextrin.
Protocol: (§1) The solubilities (in mg/ml) of the drugs were investigated at 30° C., in water; in water containing 2% β-cyclodextrin; and in aqueous solution of 2% selected cyclodextrin and 1% selected polyfunctional acid or corresponding salt.
Another data set can be described thus: physchem. To be noted: water.
For data set [2] the following is noted: with β-cyclodextrin; Menard et al 1990; cited from earlier work.

Converted amounts (≈) assume the structure as drawn. Where two headings read alike, the source gives them in different places.

By solubility is commonly meant the concentration that dissolves in the medium under given conditions. Read a high solubility as much dissolved substance.

Protocol for physchem: as §1

Consider `COc1cc(N)c(Cl)cc1C(=O)NC1CCN(CCCOc2ccc(F)cc2)CC1OC` (stereo not shown) [Cisapride], for which the “Solubility, beta-cyclodextrin + citric acid” value in data set [1] (1% citric acid, aqueous) was 550 µg/mL. The “Solubility, beta-cyclodextrin + glutaric acid” value in data set [1] (1% glutaric acid, aqueous) stood at 2070 µg/mL. For the same compound, the “Solubility, beta-cyclodextrin + lactic acid” value in data set [1] (aqueous) amounted to 11400 µg/mL. Besides, the “Solubility, beta-cyclodextrin + tartaric acid” value in data set [1] (1% tartaric acid, aqueous) came out at 4380 µg/mL. For the same compound, the “Solubility in 2% aq. beta CD soln.” value in data set [1] is 15 µg/mL (≈ 32.2 µM). In “physchem”, this compound displayed a solubility of 3 µg/mL (≈ 6.44 µM).

`CC(C)Cc1ccc(C(C)C(=O)O)cc1` (stereo not shown) [Ibuprofen]: the “Solubility, beta-cyclodextrin + glutaric acid (*trisodium salt)” value (2% beta-cd, 1% glutarate salt) was 3000 µg/mL. In addition, where the note is “2% beta-cd, 1% tartrate salt”, the “Solubility, beta-cyclodextrin + tartaric acid (*trisodium salt)” value is 1360 µg/mL. In addition, the “Solubility in 2% aq. beta CD soln.” value (water, 2% beta-cyclodextrin) amounted to 690 µg/mL (≈ 3340 µM). Besides, in “physchem”, the solubility is under 10 µg/mL. The “Relationship between solubility and concentration at different pH” value in data set [2] was “the relationship between solubility and concentration is the same at different pH levels”.

On to `CN1C(C(=O)Nc2ccccn2)=C(O)c2ccccc2S1(=O)=O` [Piroxicam], for which, in data set [1], the “Solubility in 2% aq. beta CD soln.” value came out at 72 µg/mL (≈ 217 µM). Besides, in data set [1] (water), the Solubility in water entry is given as “insoluble”.

With `CC(C)(C)c1ccc(C(O)CCCN2CCC(C(O)(c3ccccc3)c3ccccc3)CC2)cc1` (stereo not shown) [Terfenadine], in data set [1] (2% α-cyclodextrin, 1% citric acid, aqueous), the “Solubility, alpha-cyclodextrin + citric acid” value stood at 2150 µg/mL. For the same compound, in data set [1] (2% α-cyclodextrin, 1% glutaric acid, aqueous), the “Solubility, alpha-cyclodextrin + glutaric acid” value was found to be 7170 µg/mL. The “Solubility, alpha-cyclodextrin + tartaric acid” value in data set [1] (2% α-cyclodextrin, 1% tartaric acid, aqueous) was 1310 µg/mL. Besides, the “Solubility, beta-cyclodextrin + citric acid” value in data set [1] (1% citric acid, aqueous) is 5680 µg/mL. Besides, in data set [1] (1% glutaric acid, aqueous), the “Solubility, beta-cyclodextrin + glutaric acid” value was 5490 µg/mL. Moreover, the “Solubility, beta-cyclodextrin + lactic acid” value in data set [1] (aqueous) stood at 8870 µg/mL. Besides, the “Solubility, beta-cyclodextrin + tartaric acid” value in data set [1] (1% tartaric acid, aqueous) was found to be 5210 µg/mL. The “Solubility, gamma-cyclodextrin + citric acid” value in data set [1] (2% γ-cyclodextrin, 1% citric acid, aqueous) was determined as 2200 µg/mL. Also, the “Solubility, gamma-cyclodextrin + glutaric acid” value in data set [1] (2% γ-cyclodextrin, 1% glutaric acid, aqueous) turned out to be 6080 µg/mL. Moreover, the “Solubility, gamma-cyclodextrin + tartaric acid” value in data set [1] (2% γ-cyclodextrin, 1% tartaric acid, aqueous) is 1220 µg/mL. Besides, in data set [1], the “Solubility in 2% aq. beta CD soln.” value stood at 10 µg/mL (≈ 21.2 µM). For the same compound, the solubility in the data set “physchem” is under 10 µg/mL.
